Values after ≈ are worked out from the molar mass of the structure shown.
Assays:
Assay in all cases: ≥ marks a high value that may be exact or a test limit, other limits are often not marked, values filed in µg/mL are converted to µM
[1] = tested on: Staphylococcus aureus ATCC 6538
[2] = tested on: Pseudomonas aeruginosa ATCC 9027
[3] = tested on: Bacillus subtilis ATCC 6633
[4] = tested on: Candida albicans ATCC 90028
[5] = tested on: Staphylococcus aureus ATCC 43300
Candida albicans = tested on: Candida albicans
Escherichia coli = tested on: Escherichia coli
Bacillus subtilis = tested on: Bacillus subtilis
Staphylococcus aureus = tested on: Staphylococcus aureus
[6] = tested on: Escherichia coli DH5alpha
[7] = tested on: Staphylococcus aureus ATCC 25923
[8] = tested on: Pseudomonas aeruginosa ATCC 27853

| Compound | MIC (Escherichia coli) [µM] | MIC (Bacillus subtilis) [µM] | MIC [1] [µM] | MIC [2] [µM] | further results |
| --- | --- | --- | --- | --- | --- |
| CC(C)C[C@H](NC(=O)[C@H](CC(C)C)NC(=O)[C@H](CCCCN)NC(=O)[C@H](C)NC(=O)[C@H](CC(C)C)NC(=O)[C@H](CCCCN)NC(=O)[C@H](CCCCN)NC(=O)[C@H](C)NC(=O)[C@H](CC(C)C)NC(=O)[C@H](CCCCN)NC(=O)[C@H](CCCCN)NC(=O)[C@H](C)NC(=O)[C@@H](N)Cc1ccccc1)C(N)=O [FAKKLAKKLAKLL] | – | – | 3.4 (≈ 5 µg/mL) | 3.4 (≈ 5 µg/mL) | – |
| CC(C)C[C@H](NC(=O)[C@H](CCCCN)NC(=O)[C@H](CCCCN)NC(=O)[C@H](C)NC(=O)[C@H](CC(C)C)NC(=O)[C@H](CCCCN)NC(=O)[C@H](C)NC(=O)[C@H](CC(C)C)NC(=O)[C@H](CCCCN)NC(=O)[C@H](CCCCN)NC(=O)[C@H](CC(C)C)NC(=O)[C@H](CCCCN)NC(=O)[C@H](CCCCN)NC(=O)[C@H](C)NC(=O)[C@@H](N)Cc1ccccc1)C(N)=O [FAKKLKKLAKLAKKL] | – | – | 5.79 (≈ 9.99 µg/mL) | 2.89 (≈ 5 µg/mL) | – |
| CC(C)C[C@H](NC(=O)[C@@H](NC(=O)[C@H](CCCCN)NC(=O)[C@H](CCCCN)NC(=O)[C@H](C)NC(=O)[C@H](CC(C)C)NC(=O)[C@H](CCCCN)NC(=O)[C@H](C)NC(=O)[C@H](CC(C)C)NC(=O)[C@H](CC(C)C)NC(=O)[C@H](CCCCN)NC(=O)[C@H](C)NC(=O)[C@@H](N)Cc1ccccc1)C(C)C)C(N)=O [FAKLLAKLAKKVL] | – | – | 3.47 (≈ 5 µg/mL) | 69.3 (≈ 99.9 µg/mL) | – |
| CC(C)C[C@H](NC(=O)[C@H](CCCCN)NC(=O)[C@H](C)NC(=O)[C@H](CC(C)C)NC(=O)[C@H](CC(C)C)NC(=O)[C@H](CCCCN)NC(=O)[C@H](C)NC(=O)[C@@H](N)Cc1ccccc1)C(=O)N[C@@H](C)C(=O)N[C@@H](CCCCN)C(N)=O [FAKLLAKLAK] | – | – | 45.4 (≈ 50 µg/mL) | 181 (≈ 200 µg/mL) | – |
| CC[C@H](C)[C@H](NC(=O)CNC(=O)[C@H](CCCCN)NC(=O)CNC(=O)[C@H](Cc1ccccc1)NC(=O)[C@H](C)NC(=O)[C@H](CC(C)C)NC(=O)[C@H](CCCCN)NC(=O)[C@H](C)NC(=O)[C@H](Cc1c[nH]c2ccccc12)NC(=O)[C@H](CC(C)C)NC(=O)[C@H](CCCCN)NC(=O)[C@H](C)NC(=O)[C@@H](N)Cc1ccccc1)C(=O)NCC(=O)N[C@@H](CCCCN)C(=O)N[C@H](C(=O)NCC(=O)N[C@@H](CCCCN)C(=O)N[C@@H](CCCCN)C(=O)N[C@@H](CC(C)C)C(=O)N[C@@H](CC(C)C)C(N)=O)C(C)C [FAKLWAKLAFGKGIGKVGKKLL] | – | – | 6.32 (≈ 15 µg/mL) | 4.21 (≈ 10 µg/mL) | – |
| CC[C@H](C)[C@@H]1NC(=O)[C@H](C)NC(=O)[C@@H](NC(=O)[C@@H](NC(=O)[C@@H](NC(=O)[C@H](C)NC(=O)[C@@H]2CCCN2C(=O)CNC(=O)[C@@H](NC(=O)[C@H](CCCCN)NC(=O)[C@@H](NC(=O)[C@@H](NC(=O)[C@H](CC(C)C)NC(=O)[C@H](CCCN=C(N)N)NC(=O)[C@H](CC(C)C)NC(=O)[C@@H](NC(=O)CNC(=O)[C@@H]2CCCN2C(=O)[C@H](CC(C)C)NC(=O)[C@@H](N)Cc2ccccc2)C(C)C)C(C)C)[C@@H](C)O)C(C)C)C(C)C)C(C)C)CSSC[C@@H](C(=O)O)NC(=O)[C@H](CC(N)=O)NC(=O)[C@H](CCCN=C(N)N)NC(=O)[C@H]([C@@H](C)O)NC1=O [FLPGVLRLVTKVGPAVVCAITRNC] | – | – | 3.1 (≈ 7.83 µg/mL) | – | MIC [3]: 6.3 µM (≈ 15.9 µg/mL); MIC [4]: ≥ 50 µM; MIC [5]: 3.1 µM (≈ 7.83 µg/mL) |
| CC[C@H](C)[C@H](NC(=O)[C@H](CC(C)C)NC(=O)[C@H](CC(C)C)NC(=O)[C@H](CC(=O)O)NC(=O)[C@H](CCCCN)NC(=O)[C@@H](NC(=O)[C@H](C)NC(=O)CNC(=O)[C@H](CC(C)C)NC(=O)[C@@H](NC(=O)CN)C(C)C)C(C)C)C(=O)NCC(=O)N[C@@H](C)C(=O)NCC(=O)N[C@@H](CCCCN)C(=O)N[C@@H](CO)C(=O)N[C@@H](C)C(=O)N[C@@H](C)C(=O)N[C@@H](CCC(N)=O)C(=O)N[C@@H](CO)C(=O)N[C@H](C(=O)N[C@@H](CC(C)C)C(=O)N[C@@H](CCCCN)C(=O)N[C@H](C(=O)N[C@@H](CC(C)C)C(=O)N[C@@H](CO)C(=O)N[C@H]1CSSC[C@@H](C(=O)O)NC(=O)[C@H](CC(=O)O)NC(=O)[C@H](CC(N)=O)NC(=O)[C@H](CO)NC(=O)[C@H](CC(C)C)NC(=O)[C@H](CCCCN)NC1=O)[C@@H](C)O)C(C)C [GVLGAVKDLLIGAGKSAAQSVLKTLSCKLSNDC] | 2.52 (≈ 8.21 µg/mL) | 5.04 (≈ 16.4 µg/mL) | – | – | MIC (Candida albicans): 0.629 µM (≈ 2.05 µg/mL); MIC (Staphylococcus aureus): 1.26 µM (≈ 4.11 µg/mL) |
| CC(C)C[C@H](NC(=O)CNC(=O)[C@@H](NC(=O)[C@@H]1CCCN1C(=O)[C@H](CC(C)C)NC(=O)CNC(=O)[C@H](CC(N)=O)NC(=O)[C@H](CC(N)=O)NC(=O)[C@H](Cc1c[nH]c2ccccc12)NC(=O)[C@@H](NC(=O)[C@H](CCCN=C(N)N)NC(=O)[C@H](CS)NC(=O)[C@H](CCCN=C(N)N)NC(=O)[C@H](Cc1cnc[nH]1)NC(=O)[C@H](CCCCN)NC(=O)[C@H](CCCCN)NC(=O)[C@H](CCCN=C(N)N)NC(=O)[C@@H](N)CCCCN)C(C)C)[C@@H](C)O)C(=O)N[C@@H](Cc1ccc(O)cc1)C(=O)N[C@@H](CCCN=C(N)N)C(=O)N[C@@H](Cc1c[nH]c2ccccc12)C(=O)N[C@@H](CS)C(N)=O [KRKKHRCRVWNNGLPTGLYRWC] | – | – | 8 (≈ 22.2 µg/mL) | – | – |
| CC(C)C[C@H](NC(=O)[C@H](C)NC(=O)[C@H](CCCCN)NC(=O)[C@H](CCCCN)NC(=O)[C@H](CC(C)C)NC(=O)[C@H](C)NC(=O)[C@H](CCCCN)NC(=O)[C@H](CCCCN)NC(=O)[C@H](CC(C)C)NC(=O)[C@H](CCCCN)NC(=O)[C@H](CCCCN)NC(=O)[C@H](CC(C)C)NC(=O)[C@H](C)NC(=O)[C@H](CCCCN)NC(=O)[C@H](CCCCN)NC(=O)[C@H](Cc1ccccc1)NC(=O)[C@H](CC(C)C)NC(=O)[C@H](CCCCN)NC(=O)[C@H](Cc1c[nH]c2ccccc12)NC(=O)[C@@H](N)CCCCN)C(N)=O [KWKLFKKALKKLKKALKKAL] | – | – | 4.15 (≈ 10 µg/mL) | 4.15 (≈ 10 µg/mL) | – |

Now from value to molecule, other results behind:

| MIC (Escherichia coli) [µM] | MIC (Bacillus subtilis) [µM] | Compound | MIC [1] [µM] | MIC [2] [µM] | further results |
| --- | --- | --- | --- | --- | --- |
| 4.75 (≈ 9.36 µg/mL) | 19 (≈ 37.5 µg/mL) | CC[C@H](C)[C@H](NC(=O)CNC(=O)[C@H](CO)NC(=O)[C@H](CC(C)C)NC(=O)[C@H](CC(C)C)NC(=O)CN)C(=O)N[C@@H](CC(C)C)C(=O)NCC(=O)N[C@@H](C)C(=O)NCC(=O)N[C@@H](CCCCN)C(=O)N[C@@H](CCC(N)=O)C(=O)N[C@@H](CCCCN)C(=O)N[C@H](C(=O)N[C@H]1CSSC[C@@H](C(=O)O)NC(=O)[C@H](CC(C)C)NC(=O)CNC(=O)[C@H](CO)NC(=O)[C@H](CC(C)C)NC(=O)CNC1=O)C(C)C [GLLSGILGAGKQKVCGLSGLC] | – | – | MIC (Candida albicans): 2.37 µM (≈ 4.68 µg/mL); MIC (Staphylococcus aureus): 9.5 µM (≈ 18.7 µg/mL) |
| 93.5 (≈ 161 µg/mL) | 5.81 (≈ 9.99 µg/mL) | CC[C@H](C)[C@H](NC(=O)[C@H](CC(C)C)NC(=O)[C@H](C)NC(=O)[C@@H]1CCCN1C(=O)[C@H](CC(C)C)NC(=O)CN)C(=O)N[C@@H](CO)C(=O)N[C@@H](CC(C)C)C(=O)N[C@H](C(=O)N[C@@H](CCCCN)C(=O)N[C@@H](CCCN=C(N)N)C(=O)N[C@@H](CCCCN)C(=O)N[C@@H](CCCN=C(N)N)C(=O)N[C@@H](CCC(N)=O)C(=O)N[C@@H](CCC(N)=O)C(N)=O)[C@@H](C)CC [GLPALISLIKRKRQQ] | – | – | MIC (Staphylococcus aureus): 7.84 µM (≈ 13.5 µg/mL) |
| 100 (≈ 150 µg/mL) | ≥ 75 | CC[C@H](C)[C@H](NC(=O)[C@H](CO)NC(=O)[C@H](C)NC(=O)[C@@H](NC(=O)[C@H](CCCCN)NC(=O)[C@@H](N)CCCCN)[C@@H](C)CC)C(=O)NCC(=O)N[C@@H](CCCCN)C(=O)N[C@@H](CCC(=O)O)C(=O)N[C@H](C(=O)N[C@@H](CC(C)C)C(=O)N[C@@H](CCCCN)C(=O)N[C@@H](C)C(=O)N[C@@H](CC(C)C)C(N)=O)C(C)C [KKIASIGKEVLKAL] | – | – | – |
| 9.77 (≈ 17.5 µg/mL) | 9.77 (≈ 17.5 µg/mL) | CC[C@H](C)[C@@H]1NC(=O)[C@H](Cc2ccc(O)cc2)NC(=O)[C@@H](NC(=O)[C@H](CCCN=C(N)N)NC(=O)[C@H](CO)NC(=O)[C@@H](N)[C@@H](C)O)CSSC[C@@H](C(=O)N[C@@H](CO)C(=O)O)NC(=O)[C@H](C(C)C)NC(=O)[C@H](C(C)C)NC(=O)[C@H](CCCCN)NC(=O)[C@H](CCCN=C(N)N)NC(=O)[C@H](CCCN=C(N)N)NC(=O)[C@H](Cc2ccc(O)cc2)NC(=O)CNC1=O [TSRCYIGYRRKVVCS] | – | – | MIC (Candida albicans): 4.89 µM (≈ 8.74 µg/mL); MIC (Staphylococcus aureus): 19.5 µM (≈ 35 µg/mL) |
| – | ≥ 200 | CC[C@H](C)[C@H](NC(=O)[C@H](Cc1ccccc1)NC(=O)[C@@H](NC(=O)[C@H](C)NC(=O)[C@H](CCCN=C(N)N)NC(=O)[C@H](CCCCN)NC(=O)[C@H](CCCN=C(N)N)NC(=O)[C@H](CCCCN)NC(=O)[C@H](C)NC(=O)[C@H](CC(C)C)NC(=O)[C@@H](NC(=O)[C@@H](N)Cc1ccc(O)cc1)C(C)C)[C@@H](C)CC)C(=O)O [YVLAKRKRAIFI] | – | – | MIC [6]: ≥ 200 µM; MIC [7]: > 200 µM; MIC [8]: > 200 µM |
| – | 5 (≈ 8.54 µg/mL) | CC[C@H](C)[C@H](NC(=O)[C@H](Cc1ccccc1)NC(=O)[C@@H](NC(=O)[C@H](Cc1c[nH]c2ccccc12)NC(=O)[C@H](CCCN=C(N)N)NC(=O)[C@H](CCCCN)NC(=O)[C@H](CCCN=C(N)N)NC(=O)[C@H](CCCCN)NC(=O)[C@H](Cc1c[nH]c2ccccc12)NC(=O)[C@H](CC(C)C)NC(=O)[C@@H](NC(=O)[C@@H](N)Cc1ccc(O)cc1)C(C)C)[C@@H](C)CC)C(=O)O [YVLWKRKRWIFI] | – | – | MIC [6]: ≥ 60 µM; MIC [7]: 40 µM (≈ 68.3 µg/mL); MIC [8]: 150 µM (≈ 256 µg/mL) |

Reference: DBAASP
